# Experimental data: article PMC6444592, “Citrullination of HP1γ chromodomain affects association with chromatin” (Epigenetics & Chromatin, 2019)
# Tests used:
# methylated H3K9 = conditions: at gene promoters; cited from earlier work
# Excerpt: It is possible that PADI4 targets both H3R8 and HP1γ bound to the same H3N-terminal tail. The Nanog gene may represent an important example of such a locus, since chromatin immunoprecipitation experiments have shown that both HP1γ and PADI4 bind to its promoter and regulate gene expression in stem cells.
# H1.2 = conditions: reprogramming and ground state pluripotent stem cells; cited from earlier work
# Excerpt: We previously identified a role for PADI4 during reprogramming and ground state pluripotent stem cells, where the deiminase regulates key pluripotency genes via a mechanism involving citrullination of H1.2. […] Here, we report that the chromodomain of HP1γ is also citrullinated in mESCs, at R38 and R39. […] Furthermore, mutations in HP1γ designed to mimic the loss of charge caused by citrullination inhibit binding ...
# histone H3 = assay: citrullination of histone H3 by PADI4; format: biochemical; conditions: calcium, anti-H3R2-citrulline and Pan-Cit immunoblot
# Description: For immunoblotting, cells were lysed in 2 × Laemmli buffer and sonicated in a water bath (Fisherbrand) for 3 min to shear genomic DNA, spun down at full speed in a microfuge for 15 min and incubated for 5 min at 95 °C. Proteins were resolved by SDS-PAGE, transferred to nitrocellulose membrane (Millipore) using wet transfer (transfer buffer: 192 mM glycine, 25 mM Tris.HCl pH8.8) and incubated in blocking solution (5% BSA in TBS containing 0.5% Tween-20 for citrulline sensitive antibodies and 5% non-fat milk powder in TBS containing 0.1% Tween-20 for all other antibodies) for 1 h at room temperature (RT). Membranes were incubated with primary antibody at 4 °C o/n and appropriate HRP-conjugated secondary antibody for 1 h at RT. Membranes were then incubated for enhanced chemiluminescence (ECL, Promega), and proteins were detected by exposure to X-ray film or using the ChemiDoc™ MP imaging system (Bio-Rad). Images were quantified using ImageJ analysis software. Primary antibodies diluted in blocking solution were used to detect citrullinated histone H3R2 (H3R2-Cit, Abcam ab176843 at 1:1000 dilution), HP1γ (Millipore 05-690 MAB clone 42s2 [16] at 1:1000 dilution), β-Tubulin (Abcam ab6046 at 1:1000 dilution) and peptidyl-citrulline (Millipore MABN328, clone F95 [48] at 1:1000 dilution). […]
substance,measurement,setting,value
Peptidylarginine deiminase 4 [PADI4],effect of H3R8 citrullination on HP1 binding to adjacent methylated H3K9,methylated H3K9,reduces the binding affinity of HP1 to adjacent methylated H3K9
same,effect of H1.2 citrullination,H1.2,eviction from chromatin and global chromatin decompaction
same,enzymatic activity of recombinant PADI4 on histone H3,histone H3,confirmed by citrullination of histone H3
